Here are results for 15 molecules from publication PMC5784158, “New 2-Aryl-9-methyl-β-carbolinium salts as Potential Acetylcholinesterase Inhibitor agents: Synthesis, Bioactivity and Structure–Activity Relationship” (Scientific Reports, 2018).

Molecules are shown by their SMILES.

The target of one assay is AChE (Musca domestica, UniProt Q7YWJ9). Put plainly: biochemical. The format is biochemical, fly. As to conditions: for IC50: read-out: IC50 ± S.D AChE; for Inhibition rate (%): test concentration of the compound 10 μM. The procedure:
AChE (E.C. 3.1.1.7) (BR, 200 u/mg) from fly’s head and BuChE (E.C. 3.1.1.8) (BR, 20 u/mg) from horse serum were purchased from Shanghai Yuanye biological technology Co. Ltd (Shanghai, China).
(§1) The inhibitory activities of the compounds against AChE were evaluated according to Ellman’s coupled enzyme assay[47] with the following modifications. 90 μL potassium phosphate buffer (PBS, 0.1 M, pH 7.4), 10 μL the solution of 2 units/mL AChE in 0.1 M PBS (pH 7.4) and 10 μL the solution of 200 μM test compounds in the mixed solution of methanol-PBS (pH 7.4) (1:9, V/V) were added to each well of a 96-well plate. The methanol-PBS solution was used as a blank control. After incubation at room temperature for 10 min, 60 μL the solution of 10 mM DTNB in PBS was added into each the well. The plate was placed on crushed ices and cooled for 20 min. To each the well was added 30 μL the solution of 7.5 mM ATCh in PBS (pH 7.4). […] Each test was performed in triplicate. Inhibition rates of the enzyme were calculated relative to a control sample. The inhibitory activities against BuChE were measured as described above for AChE, using 0.7 unit/mL BuChE and 4 mM BuTCh instead of AChE and ATCh as the enzyme and substrate, respectively.
(§2) The probit value of the average inhibition rate for each test concentration and the corresponding lg[concentration] were used to establish enzyme inhibition regression equation by the linear least-square fitting method. IC50 values were calculated from the equations.

A further assay has as its target T1, BuChE (Equus caballus, UniProt P81908).
T1 construct: BuChE (E.C. 3.1.1.8) (BR, 20 u/mg) from horse serum; purchased Shanghai Yuanye biological technology Co. Ltd (Shanghai, China); host or cells: horse serum (tissue-derived)
Put plainly: BuChE inhibition, Ellman's method. The format is biochemical, horse. Particulars: read-out: IC50 ± S.D BuChE.
Text: There is increasing recognition that BuChE may play an important role in cholinergic transmission[15],[16]. While the level of AChE decreases dramatically in the advanced stage of AD, BuChE increases in brain regions involved in cognitive functions[17],[18]. At this point, BuChE is able to compensate for AChE loss by hydrolyzing ACh. These observations lead one to believe that inhibition of both AChE and BuChE may contribute to improvement of current symptomatic treatments of AD. Therefore, the compounds in Table 2 were also evaluated for BuChE inhibition activity by means of Ellman’s method. […] AChE (E.C. 3.1.1.7) (BR, 200 u/mg) from fly’s head and BuChE (E.C. 3.1.1.8) (BR, 20 u/mg) from horse serum were purchased from Shanghai Yuanye biological technology Co. Ltd (Shanghai, China).
as §1, §2

T1 sequence (P81908 whole entry): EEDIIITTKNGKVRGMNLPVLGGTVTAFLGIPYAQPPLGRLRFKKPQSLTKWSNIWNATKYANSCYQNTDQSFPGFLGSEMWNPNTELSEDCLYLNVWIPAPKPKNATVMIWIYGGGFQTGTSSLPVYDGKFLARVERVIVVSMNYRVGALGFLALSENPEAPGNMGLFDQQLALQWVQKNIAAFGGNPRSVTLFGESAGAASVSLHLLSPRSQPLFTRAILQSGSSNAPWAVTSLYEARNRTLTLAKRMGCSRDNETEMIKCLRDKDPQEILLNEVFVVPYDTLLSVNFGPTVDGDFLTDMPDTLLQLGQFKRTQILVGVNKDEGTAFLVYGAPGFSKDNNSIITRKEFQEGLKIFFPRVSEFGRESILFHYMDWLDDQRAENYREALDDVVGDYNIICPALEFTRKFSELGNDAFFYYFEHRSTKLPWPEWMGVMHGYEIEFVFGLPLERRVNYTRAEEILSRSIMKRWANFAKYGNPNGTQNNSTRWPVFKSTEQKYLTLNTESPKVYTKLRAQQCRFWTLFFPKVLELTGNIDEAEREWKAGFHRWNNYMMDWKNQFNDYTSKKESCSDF
Chain of AChE (Q7YWJ9 81-659): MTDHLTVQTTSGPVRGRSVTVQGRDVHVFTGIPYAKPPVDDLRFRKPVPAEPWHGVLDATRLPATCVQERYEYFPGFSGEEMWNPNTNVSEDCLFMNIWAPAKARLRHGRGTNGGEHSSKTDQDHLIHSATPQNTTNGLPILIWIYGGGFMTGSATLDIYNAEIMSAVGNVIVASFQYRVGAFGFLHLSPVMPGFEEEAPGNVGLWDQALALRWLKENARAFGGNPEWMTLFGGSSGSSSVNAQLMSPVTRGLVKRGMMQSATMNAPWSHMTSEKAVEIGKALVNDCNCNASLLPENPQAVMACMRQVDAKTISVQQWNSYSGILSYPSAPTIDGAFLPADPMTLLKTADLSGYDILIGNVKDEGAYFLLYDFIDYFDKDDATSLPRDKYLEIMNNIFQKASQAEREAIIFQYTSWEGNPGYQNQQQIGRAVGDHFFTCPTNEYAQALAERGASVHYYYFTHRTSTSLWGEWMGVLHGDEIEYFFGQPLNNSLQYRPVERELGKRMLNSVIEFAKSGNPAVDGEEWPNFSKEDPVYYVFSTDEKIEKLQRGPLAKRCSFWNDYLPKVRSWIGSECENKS

Take `Cn1c2c(c3ccccc31)CC[N+](c1ccccc1)=C2.[Br-]` [Compound A1]: on AChE, the “SI: selectivity index, ratio IC50 (BuChE)/IC50 (AChE)” value (“SI: selectivity index, ratio IC50” for short) was 0.54; the IC50 is 18.6 ± 2.93 µM; the “Inhibition rate (%)” value was 40.9 ± 2.1 ij %. Further, the IC50 at BuChE was determined as 10.1 ± 1.66 µM.

Take `Cn1c2c(c3ccccc31)CC[N+](c1ccc(F)cc1)=C2.[Br-]` [Compound A4]: at AChE, the “SI: selectivity index, ratio IC50” value worked out at 4.22; the IC50 came out at 14.1 ± 1.41 µM; the “Inhibition rate (%)” value amounted to 49.3 ± 2.2 fgh %. For the same molecule, the half-inhibitory concentration (IC50) at BuChE came to 59.5 ± 2.72 µM.

Consider `Cn1c2c(c3ccccc31)CC[N+](c1ccc(Cl)cc1)=C2.[Br-]` [Compound A7], for which, on AChE, the “SI: selectivity index, ratio IC50” value came out at 5.57; the IC50 worked out at 7.58 ± 1.29 µM; the “Inhibition rate (%)” value is 60.1 ± 2.9 d %. Further, at BuChE, the 50% inhibitory concentration (IC50) worked out at 42.2 ± 0.86 µM.

Regarding `Cn1c2c(c3ccccc31)CC[N+](c1ccc(Br)cc1)=C2.[Br-]` [Compound A10], at AChE, the “SI: selectivity index, ratio IC50” value is recorded as 11.2; the IC50 was 6.79 ± 2.29 µM; the “Inhibition rate (%)” value turned out to be 60.3 ± 1.6 d %. For the same molecule, at BuChE, the IC50 was found to be 76.2 ± 11 µM.

With `Cn1c2c(c3ccccc31)CC[N+](c1ccc(I)cc1)=C2.[Br-]` [Compound A13], on AChE, the “SI: selectivity index, ratio IC50” value turned out to be 9.80; the half-maximal inhibitory concentration (IC50) worked out at 5.5 ± 0.37 µM; the “Inhibition rate (%)” value was 54.2 ± 3.2 ef %. Besides, the half-inhibitory concentration (IC50) on BuChE worked out at 53.8 ± 2.51 µM.

`Cn1c2c(c3ccccc31)CC[N+](c1cccc(O)c1)=C2.[Br-]` [Compound A15]: on AChE, the “SI: selectivity index, ratio IC50” value amounted to 1.63; the IC50 turned out to be 6.12 ± 0.61 µM; the “Inhibition rate (%)” value is 51.8 ± 9.1 fg %. Besides, the IC50 on BuChE was found to be 10 ± 0.59 µM.

Turning to `Cn1c2c(c3ccccc31)CC[N+](c1ccc(O)cc1)=C2.[Br-]` [Compound A16], on AChE, the “SI: selectivity index, ratio IC50” value is given as 9.96; the concentration for half-maximal inhibition (IC50) is 2.81 ± 0.22 µM; the “Inhibition rate (%)” value amounted to 64.3 ± 0.3 cd %. Moreover, the IC50 at BuChE amounted to 28 ± 2.88 µM.

Turning to `COc1ccc([N+]2=Cc3c(c4ccccc4n3C)CC2)cc1.[Br-]` [Compound A19], on AChE, the “SI: selectivity index, ratio IC50” value was determined as 46.9; the IC50 turned out to be 2.92 ± 0.28 µM; the “Inhibition rate (%)” value was found to be 66.1 ± 0.5 c %. For the same molecule, at BuChE, the IC50 is 137 ± 0.79 µM.

With `COc1ccc2c(c1)c1c(n2C)C=[N+](c2ccccc2)CC1.[Br-]` [Compound A34], at AChE, the “SI: selectivity index, ratio IC50” value was 18.4; the half-inhibitory concentration (IC50) stood at 2.04 ± 0.33 µM; the “Inhibition rate (%)” value is reported as 68.4 ± 2.8 c %. Also, the IC50 at BuChE came out at 37.6 ± 2.84 µM.

For the molecule `Cc1ccc2c(c1)c1c(n2C)C=[N+](c2ccccc2)CC1.[Br-]` [Compound A35], at AChE, the “SI: selectivity index, ratio IC50” value came to 3.98; the half-inhibitory concentration (IC50) stood at 2.66 ± 0.37 µM; the “Inhibition rate (%)” value is listed as 70.3 ± 2.2 bc %. For the same molecule, the IC50 on BuChE stood at 10.6 ± 0.58 µM.

For the molecule `Cn1c2c(c3ccc(F)cc31)CC[N+](c1ccccc1)=C2.[Br-]` [Compound A36], on AChE, the “SI: selectivity index, ratio IC50” value amounted to 3.00; the IC50 was determined as 4.74 ± 0.9 µM; the “Inhibition rate (%)” value was found to be 59.3 ± 2.1 de %. The half-inhibitory concentration (IC50) at BuChE came to 14.2 ± 0.44 µM.

For `Cn1c2c(c3ccc(Cl)cc31)CC[N+](c1ccccc1)=C2.[Br-]` [Compound A37], at AChE, the “SI: selectivity index, ratio IC50” value amounted to 2.91; the 50% inhibitory concentration (IC50) was determined as 4.02 ± 0.95 µM; the “Inhibition rate (%)” value is given as 66.6 ± 4.7 c %. At BuChE, the half-inhibitory concentration (IC50) was determined as 11.7 ± 0.5 µM.

`CCn1c2c(c3ccccc31)CC[N+](c1ccccc1)=C2.[Br-]` [Compound A38]: on AChE, the “SI: selectivity index, ratio IC50” value turned out to be 2.82; the 50% inhibitory concentration (IC50) is 3.69 ± 0.4 µM; the “Inhibition rate (%)” value was found to be 76.6 ± 3.7 a %. Further, the concentration for half-maximal inhibition (IC50) at BuChE worked out at 10.4 ± 0.4 µM.

For the molecule `CCCn1c2c(c3ccccc31)CC[N+](c1ccccc1)=C2.[Br-]` [Compound A39], at AChE, the “SI: selectivity index, ratio IC50” value is on record as 2.27; the IC50 is 5.72 ± 0.66 µM; the “Inhibition rate (%)” value turned out to be 67.1 ± 2.4 c %. For the same molecule, the IC50 at BuChE came out at 13 ± 0.62 µM.

Consider `CC(C)n1c2c(c3ccccc31)CC[N+](c1ccccc1)=C2.[Br-]` [Compound A40], for which, at AChE, the “SI: selectivity index, ratio IC50” value is 4.37; the IC50 came out at 3.73 ± 0.34 µM; the “Inhibition rate (%)” value was 68.9 ± 5.1 bc %. Moreover, the half-maximal inhibitory concentration (IC50) at BuChE is 16.3 ± 0.56 µM.
